Data reported in patent US11696913B2, “Prolonged ectoparasite-controlling agent for animal” (MITSUI CHEMICALS AGRO, INC., priority 2017, dated 2023).

Tests used:
Ixodes ricinus = assay: In vitro contact test with adult hard ticks (Ixodes ricinus); conditions: read-out: acaricidal activity; for pest or weed control at 0.2 µg/cm2, 0.2 µg/cm2: dose 0.2 μg/cm^2, 48 h; for pest or weed control at 1 µg/cm2, 1 µg/cm2: dose 1 μg/cm^2, 48 h; for pest or weed control at 5 µg/cm2, 5 µg/cm2: dose 5 μg/cm^2, 48 h
In short: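 Acaricidal activity = % ticks dead or moribund after 48 h contact with acetone-deposited compound on vial walls (e.g., 900 ppm solution → 5 μg/cm^2). Ambient conditions for R. sanguineus, 21° C./85% rel. hum. for other species; heat challenge at 45-50° C. separated climbers from moribund ticks.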

Ctenocephalides felis [1] = assay: In vitro contact test with fleas; conditions: read-out: insecticidal activity; for pest or weed control at 0.04 µg/cm2, 0.04 µg/cm2: dose 0.04 μg/cm^2, dead or moribund fleas after 48 h; for pest or weed control at 0.2 µg/cm2, 0.2 µg/cm2: dose 0.2 μg/cm^2, dead or moribund fleas after 48 h; for pest or weed control at 1 µg/cm2, 1 µg/cm2: dose 1 μg/cm^2, dead or moribund fleas after 48 h
In short: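 Activity is the percentage of fleas dead or moribund at 48 h, judged by immobility or uncoordinated movement after tapping. Tubes were coated by evaporating acetone solutions (900 ppm gives 5 μg/cm^2), then held 5-10 adult fleas of both sexes at room temperature and ambient humidity.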

Ctenocephalides felis [2] = assay: Topical treatment in-vivo test with cat flea on rats; conditions: topical spot-on
Protocol: (§1) Topical Treatment In-Vivo Test with American Dog Tick Nymph and Cat Flea on Rats
(§2) Type of study and overall study design: The method is a randomized non-blinded efficacy study in accordance with European animal welfare requirements. Rats (Rattus norvegicus) were randomized based on pre-treatment flea counts. The efficacy of treatment was determined by comparison of the flea and tick counts of different treatment groups versus the placebo-treated control group. The experimental unit was the individual study animal.
(§3) Method and route of administration: The compound was applied in a suitable solvent and carrier (more specifically, added to the following mixture: 33.3% by weight propylene carbonate, […] N-methylpyrrolidone, 0.1% by weight BHA, 0.05% by weight BHT) considering the individual body weight as topical spot-on between the shoulder blades directly onto the skin.
(§4) Experimental infestation: On the day of treatment and weekly thereafter, 30 ticks (D. variabilis nymphs) were released onto the back of each rat, and 30 fleas (C. felis) were released onto the back of each rat 24 h later.
(§5) Tick and Flea counting: Rats were thoroughly examined and ticks and fleas were manually removed 48 h (+4 h) after tick infestation and 24 h after flea infestation. Live fleas and live attached engorged ticks were counted. In non-evident cases, engorgement status was evaluated by squeezing the tick on a filter paper to find traces of blood as sign for engorgement.

Dermacentor variabilis = assay: Topical treatment in-vivo test with American dog tick nymph on rats; conditions: topical spot-on, 25 mg/kg
Protocol: as §1, §2, §3, §4, §5

Laodelphax striatellus = assay: Insecticidal testing against small brown planthopper; format: in vivo; conditions: 144 h, concentration 100 ppm, sprayed rice seedlings, after 6 days, read-out: pesticidal rate
In short: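 Acetone solution of compound at a set concentration sprayed onto rice seedlings, air-dried, then exposed to 10 planthoppers (one group). Held at 25° C; survival rate recorded after 6 days.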

Spodoptera litura = assay: Insecticidal testing against common cutworm; format: in vivo; conditions: foliar, 144 h, concentration 100 ppm, cabbage leaf dip, second-stage larvae, after 6 days, read-out: pesticidal rate
From the text: Insecticidal Testing Against Common Cutworm (Spodoptera litura)

In the case of `CN(C(=O)c1ccc(F)cc1)c1cccc(C(=O)Nc2c(I)cc(C(F)(C(F)(F)F)C(F)(F)F)cc2C(F)(F)F)c1F` [Compound 24], the pest or weed control at 0.2 µg/cm2, 0.2 µg/cm2 (Ixodes ricinus) was 90%, the pest or weed control at 1 µg/cm2, 1 µg/cm2 (Ixodes ricinus) was 90% and the pest or weed control at 5 µg/cm2, 5 µg/cm2 (Ixodes ricinus) was 90%. For the same molecule, the pest or weed control at 0.04 µg/cm2, 0.04 µg/cm2 (Ctenocephalides felis [1]) was 95%, the pest or weed control at 0.2 µg/cm2, 0.2 µg/cm2 (Ctenocephalides felis [1]) was 95% and the pest or weed control at 1 µg/cm2, 1 µg/cm2 (Ctenocephalides felis [1]) was 95%. For the same molecule, the “Geometric mean percent reduction in live flea (Ctenocephalides felis) counts compared to untreated control rats” value (Ctenocephalides felis [2]; 10 mg/kg, SD 2) was 100%, the “Geometric mean percent reduction in live flea (Ctenocephalides felis) counts compared to untreated control rats” value (Ctenocephalides felis [2]; 10 mg/kg, SD 9) was 99% and the “Geometric mean percent reduction in live flea (Ctenocephalides felis) counts compared to untreated control rats” value (Ctenocephalides felis [2]; 10 mg/kg, SD 16) was 97%. For the same molecule, the “Geometric mean percent reduction in live flea (Ctenocephalides felis) counts compared to untreated control rats” value (Ctenocephalides felis [2]; 10 mg/kg, SD 23) was 96% and the “Geometric mean percent reduction in live flea (Ctenocephalides felis) counts compared to untreated control rats” value (Ctenocephalides felis [2]; 10 mg/kg, SD 30) was 77%.

With `CN(C(=O)c1ccc(F)cc1)c1cccc(C(=O)Nc2c(I)cc(C(F)(C(F)(F)F)C(F)(F)C(F)(F)F)cc2C(F)(F)F)c1F` (stereo not shown) [Compound 37] the pest or weed control at 0.04 µg/cm2, 0.04 µg/cm2 (Ctenocephalides felis [1]) was 95%, the pest or weed control at 0.2 µg/cm2, 0.2 µg/cm2 (Ctenocephalides felis [1]) was 95% and the pest or weed control at 1 µg/cm2, 1 µg/cm2 (Ctenocephalides felis [1]) was 95%.

In the case of `CN(C(=O)c1ccc(F)c(F)c1)c1cccc(C(=O)Nc2c(I)cc(C(F)(C(F)(F)F)C(F)(F)F)cc2C(F)(F)F)c1F` [Compound 51], the “Geometric mean percent reduction in live tick (Dermacentor variabilis) counts compared to untreated control rats” value (Dermacentor variabilis; SD 2) was 82%, the “Geometric mean percent reduction in live tick (Dermacentor variabilis) counts compared to untreated control rats” value (Dermacentor variabilis; SD 9) was 95% and the “Geometric mean percent reduction in live tick (Dermacentor variabilis) counts compared to untreated control rats” value (Dermacentor variabilis; SD 16) was 80%. For the same molecule, the “Geometric mean percent reduction in live tick (Dermacentor variabilis) counts compared to untreated control rats” value (Dermacentor variabilis; SD 23) was 73%, the “Geometric mean percent reduction in live tick (Dermacentor variabilis) counts compared to untreated control rats” value (Dermacentor variabilis; SD 30) was 55% and the pest or weed control at 0.04 µg/cm2, 0.04 µg/cm2 (Ctenocephalides felis [1]) was 95%. For the same molecule, the pest or weed control at 0.2 µg/cm2, 0.2 µg/cm2 (Ctenocephalides felis [1]) was 95%, the pest or weed control at 1 µg/cm2, 1 µg/cm2 (Ctenocephalides felis [1]) was 95% and the pest or weed control at 100 ppm (Laodelphax striatellus) was no less than 70%. For the same molecule, the “Geometric mean percent reduction in live flea (Ctenocephalides felis) counts compared to untreated control rats” value (Ctenocephalides felis [2]; 25 mg/kg, SD 2) was 100%, the “Geometric mean percent reduction in live flea (Ctenocephalides felis) counts compared to untreated control rats” value (Ctenocephalides felis [2]; 25 mg/kg, SD 9) was 98% and the “Geometric mean percent reduction in live flea (Ctenocephalides felis) counts compared to untreated control rats” value (Ctenocephalides felis [2]; 25 mg/kg, SD 16) was 91%. For the same molecule, the “Geometric mean percent reduction in live flea (Ctenocephalides felis) counts compared to untreated control rats” value (Ctenocephalides felis [2]; 25 mg/kg, SD 23) was 95%, the “Geometric mean percent reduction in live flea (Ctenocephalides felis) counts compared to untreated control rats” value (Ctenocephalides felis [2]; 25 mg/kg, SD 30) was 93% and the pest or weed control at 100 ppm (Spodoptera litura) was no less than 70%.

Molecule `CN(C(=O)c1ccc(C(F)(F)F)nc1)c1cccc(C(=O)Nc2c(I)cc(C(F)(C(F)(F)F)C(F)(F)F)cc2C(F)(F)F)c1F` [Compound 66, N-(2-fluoro-3-((2-iodo-4-(perfluoropropan-2-yl)-6-(trifluoromethyl)phenyl)carbamoyl)phenyl)-N-methyl-6-(trifluoromethyl)nicotinamide] has a pest or weed control at 0.2 µg/cm2, 0.2 µg/cm2 (Ctenocephalides felis [1]) of 95%, a pest or weed control at 1 µg/cm2, 1 µg/cm2 (Ctenocephalides felis [1]) of 95% and a pest or weed control at 100 ppm (Laodelphax striatellus) of no less than 70%. It also gave a pest or weed control at 100 ppm (Spodoptera litura) of no less than 70%.

With `O=C(Nc1cccc(C(=O)Nc2c(I)cc(C(F)(C(F)(F)F)C(F)(F)F)cc2C(F)(F)F)c1F)c1ccc(C(F)(F)F)nc1` [Compound 67, N-(2-fluoro-3-((2-iodo-4-(perfluoropropan-2-yl)-6-(trifluoromethyl)phenyl)carbamoyl)phenyl)-6-(trifluoromethyl)nicotinamide] the “Geometric mean percent reduction in live tick (Dermacentor variabilis) counts compared to untreated control rats” value (Dermacentor variabilis; SD 2) was 57%, the “Geometric mean percent reduction in live tick (Dermacentor variabilis) counts compared to untreated control rats” value (Dermacentor variabilis; SD 9) was 98% and the “Geometric mean percent reduction in live tick (Dermacentor variabilis) counts compared to untreated control rats” value (Dermacentor variabilis; SD 16) was 100%. For the same molecule, the “Geometric mean percent reduction in live tick (Dermacentor variabilis) counts compared to untreated control rats” value (Dermacentor variabilis; SD 23) was 100%, the “Geometric mean percent reduction in live tick (Dermacentor variabilis) counts compared to untreated control rats” value (Dermacentor variabilis; SD 30) was 77% and the pest or weed control at 0.2 µg/cm2, 0.2 µg/cm2 (Ixodes ricinus) was 90%. It also gave a pest or weed control at 1 µg/cm2, 1 µg/cm2 (Ixodes ricinus) of 90%, a pest or weed control at 5 µg/cm2, 5 µg/cm2 (Ixodes ricinus) of 90% and a pest or weed control at 0.04 µg/cm2, 0.04 µg/cm2 (Ctenocephalides felis [1]) of 95%. For the same molecule, the pest or weed control at 0.2 µg/cm2, 0.2 µg/cm2 (Ctenocephalides felis [1]) was 95%, the pest or weed control at 1 µg/cm2, 1 µg/cm2 (Ctenocephalides felis [1]) was 95% and the pest or weed control at 100 ppm (Laodelphax striatellus) was no less than 70%. For the same molecule, the “Geometric mean percent reduction in live flea (Ctenocephalides felis) counts compared to untreated control rats” value (Ctenocephalides felis [2]; 25 mg/kg, SD 2) was 98%, the “Geometric mean percent reduction in live flea (Ctenocephalides felis) counts compared to untreated control rats” value (Ctenocephalides felis [2]; 25 mg/kg, SD 9) was 93% and the “Geometric mean percent reduction in live flea (Ctenocephalides felis) counts compared to untreated control rats” value (Ctenocephalides felis [2]; 25 mg/kg, SD 16) was 97%. For the same molecule, the “Geometric mean percent reduction in live flea (Ctenocephalides felis) counts compared to untreated control rats” value (Ctenocephalides felis [2]; 25 mg/kg, SD 23) was 81%, the “Geometric mean percent reduction in live flea (Ctenocephalides felis) counts compared to untreated control rats” value (Ctenocephalides felis [2]; 25 mg/kg, SD 30) was 79% and the pest or weed control at 100 ppm (Spodoptera litura) was no less than 70%.

Molecule `CN(C(=O)c1ccc(F)cc1)c1cccc(C(=O)Nc2c(I)cc(C(F)(C(F)(F)F)C(F)(F)F)cc2OC(F)(F)F)c1F` [Compound 74] has a pest or weed control at 1 µg/cm2, 1 µg/cm2 (Ixodes ricinus) of 90%, a pest or weed control at 5 µg/cm2, 5 µg/cm2 (Ixodes ricinus) of 90% and a pest or weed control at 0.04 µg/cm2, 0.04 µg/cm2 (Ctenocephalides felis [1]) of 95%. The pest or weed control at 0.2 µg/cm2, 0.2 µg/cm2 (Ctenocephalides felis [1]) was 95%, the pest or weed control at 1 µg/cm2, 1 µg/cm2 (Ctenocephalides felis [1]) was 95% and the pest or weed control at 100 ppm (Laodelphax striatellus) was no less than 70%. It also gave a pest or weed control at 100 ppm (Spodoptera litura) of no less than 70%.

`CN(C(=O)c1ccc(F)cc1)c1cccc(C(=O)Nc2c(I)cc(C(F)(C(F)(F)F)C(F)(F)C(F)(F)F)cc2OC(F)F)c1F` (stereo not shown) [Compound 103] showed a pest or weed control at 0.2 µg/cm2, 0.2 µg/cm2 (Ixodes ricinus) of 90%, a pest or weed control at 5 µg/cm2, 5 µg/cm2 (Ixodes ricinus) of 90% and a pest or weed control at 0.04 µg/cm2, 0.04 µg/cm2 (Ctenocephalides felis [1]) of 95%. For the same molecule, the pest or weed control at 0.2 µg/cm2, 0.2 µg/cm2 (Ctenocephalides felis [1]) was 95%, the pest or weed control at 1 µg/cm2, 1 µg/cm2 (Ctenocephalides felis [1]) was 95% and the pest or weed control at 100 ppm (Laodelphax striatellus) was no less than 70%. It also gave a pest or weed control at 100 ppm (Spodoptera litura) of no less than 70%.

`CN(C(=O)c1ccc(F)nc1)c1cccc(C(=O)Nc2c(I)cc(C(F)(C(F)(F)F)C(F)(F)F)cc2C(F)(F)F)c1F` [Compound 115, 6-fluoro-N-(2-fluoro-3-((2-iodo-4-(perfluoropropan-2-yl)-6-(trifluoromethyl)phenyl)carbamoyl)phenyl)-N-methylnicotinamide] showed a pest or weed control at 5 µg/cm2, 5 µg/cm2 (Ixodes ricinus) of 90%, a pest or weed control at 0.04 µg/cm2, 0.04 µg/cm2 (Ctenocephalides felis [1]) of 95% and a pest or weed control at 0.2 µg/cm2, 0.2 µg/cm2 (Ctenocephalides felis [1]) of 95%. It also gave a pest or weed control at 1 µg/cm2, 1 µg/cm2 (Ctenocephalides felis [1]) of 95%, a pest or weed control at 100 ppm (Laodelphax striatellus) of no less than 70% and a pest or weed control at 100 ppm (Spodoptera litura) of no less than 70%.

`CN(C(=O)c1ccc(C(F)(F)F)nc1)c1cccc(C(=O)Nc2c(I)cc(C(F)(C(F)(F)F)C(F)(F)C(F)(F)F)cc2C(F)(F)F)c1F` (stereo not shown) [Compound 119] showed a pest or weed control at 0.04 µg/cm2, 0.04 µg/cm2 (Ctenocephalides felis [1]) of 95%, a pest or weed control at 0.2 µg/cm2, 0.2 µg/cm2 (Ctenocephalides felis [1]) of 95% and a pest or weed control at 1 µg/cm2, 1 µg/cm2 (Ctenocephalides felis [1]) of 95%. The pest or weed control at 100 ppm (Laodelphax striatellus) was no less than 70% and the pest or weed control at 100 ppm (Spodoptera litura) was no less than 70%.
